From patent US11091469B2, “Crystalline form of N-[5-(3,5-difluoro-benzyl)-1H-indazol-3-yl]-4-(4-methyl-piperazin-1-yl)-2-(tetrahydro-pyran-4-ylamino)-benzamide” (NERVIANO MEDICAL SCIENCES S.R.L., priority 2016, dated 2021)

What was measured:
[1] = tested on: solid tumors with NTRK1, NTRK2, NTRK3, ROS1 or ALK genetic alterations which are fusions; assay: Phase I clinical trials of entrectinib in cancer patients: tumor response (RECIST); assay type: in vivo, human
Description: (§1) A total of 18 patients across the Phase I studies met our expected Phase 2 eligibility criteria, which include the presence of NTRK1, NTRK2, NTRK3, ROS1 or ALK genetic alterations which are fusions, as opposed to other types of molecular alterations; the patient not having been previously treated with an ALK inhibitor or a ROS1 inhibitor and treatment at or above the recommended Phase II dose.

[2] = Phase I clinical trials of entrectinib in cancer patients: pharmacokinetic measurements
Description: as §1

[3] = Phase I clinical trials of entrectinib in cancer patients: treatment-related adverse events, recommended Phase II dose; conditions: across the Phase I studies
[4] = Thermodynamic stability of crystalline forms; assay type: physicochemical; conditions: at temperature of about 40° C. or higher, vis-à-vis the three known crystalline forms (forms 1, 2, 3)

SMILES | response rate, defined as complete and partial responses by RECIST criteria ([1]; 18 patients who met the expected Phase 2 eligibility criteria across both Phase I studies, assessed by the clinical sites) [%] | additional patients remaining on study with stable disease ([1]; among the 18 patients meeting expected Phase 2 eligibility criteria) [patients] | durable responses (duration on study treatment) ([1]; nine responders remaining on study treatment) | responses in patients with NTRK1, NTRK2 or NTRK3 gene rearrangements ([1]; out of 4 patients, NSCLC, colorectal cancer, salivary gland cancer) [responses] | responses in patients with ALK gene rearrangements ([1]; out of 6 patients, two NSCLC and two other solid tumors) [responses] | responses in patients with ROS1 gene rearrangements ([1]; out of 8 patients, all NSCLC, including one complete response) [responses] | responses out of treated patients ([1]; out of 18 treated patients meeting expected Phase 2 eligibility criteria) [responses] | longest time on treatment of responders ([1]; responding patients with ROS1 gene rearrangements, NSCLC) [months] | pharmacokinetic measurements (exposure vs dose) ([2]; across the daily dosing regimens evaluated) | half-life ([2]; daily dosing regimens, patients) | Grade 3 treatment-related adverse event: cognitive impairment ([3]; 92 patients dosed) [patients] | Grade 3 treatment-related adverse event: diarrhea ([3]; 92 patients dosed) [patient] | Grade 3 treatment-related adverse event: fatigue ([3]; 92 patients dosed) [patients] | incidence of the most frequent treatment-related adverse events ([3]; fatigue, dysgeusia, paresthesia, nausea, myalgia) [%] | thermodynamic stability [4]
CN1CCN(c2ccc(C(=O)Nc3n[nH]c4ccc(Cc5cc(F)cc(F)c5)cc34)c(NC3CCOCC3)c2)CC1 [Entrectinib, N-[5-(3,5-Difluoro-benzyl)-1H-indazol-3-yl]-4-(4-methyl-piperazin-1-yl)-2-(tetrahydro-pyran-4-ylamino)-benzamide] | 72 | 3 | up to 21 treatment cycles | 3 | 4 | 6 | 13 | 21 | dose-proportional increases | compatible with once-daily dosing | 2 | 1 | 4 | > 10 | 
CN1CCN(c2ccc(C(=O)Nc3n[nH]c4ccc(Cc5cc(F)cc(F)c5)cc34)c(NC3CCOCC3)c2)CC1 [Form 4, N-[5-(3,5-difluoro-benzyl)-1H-indazol-3-yl]-4-(4-methyl-piperazin-1-yl)-2-(tetrahydro-pyran-4-ylamino)-benzamide] |  |  |  |  |  |  |  |  |  |  |  |  |  |  | greater thermodynamic stability
